In the data set the test system is human corneal epithelial cell line HCE-T. Description: Vitality determination on corneal epithelial cells in culture (Cell Titer Blue test). The note with it: 60 minutes incubation. In kind it is cell-based. The protocol: The cytotoxicity tests were performed on the human corneal epithelial cell line […]. in the cell test. Cultivation was effected in a black 96 well plate (Nunc). Per well, 25,000 cells were sown and cultivated for 48 h. Determination of the viability was implemented with the Cell Titer Blue® test. The dye resazurin is hereby added to the cells after exposure with the samples. Viable cells are able, because of their mitochondrial activity, to convert the resazurin into the fluorescent resorufin which can be determined fluorimetrically (Illustration 1). Via positive control (Krebs-Ringer-buffer-KRB and saline phosphate buffer-PBS) and also negative control (lysis buffer), the viability of the cells can be expressed as a percentage. All samples were determined with n=6. For the determination, the cell culture medium was removed, the cells were rinsed with KRB and incubated for 60 minutes with the various samples and also controls. […] Thereafter, all samples were treated with KRB and resazurin according to Promega protocol and measured with a Genios Plate Reader (Tecan).

For the compound `CCCCCCCCCCCCCCCC(=O)OC(C)C` [Sample K4, isopropyl palmitate], the cytotoxicity result is listed as “lowest cytotoxicity” and the “survival rate of the cells” value was 100%.
